System: C26 cells
Assay: Metabolic activity of C26 cells after fatty acid pre-incubation and chemotherapy incubation
Format: cell-based, Murine
Conditions: 4 days pre-incubation with 50 µM fatty acid, medium removed, compared to control, p< 0.0001 for EPA or DPA
Method: C = mice receiving control diet B, TB = tumor-bearing mice receiving control diet, TB-SNC = tumor-bearing mice receiving the specific nutritional combination.
Prior to chemotherapy incubations, C26 cells were pre-incubated for 4 days with EPA, DHA or DPA in a final concentration of 50 µM. To avoid direct interaction between fatty acids and chemotherapeutics, the medium containing fatty acids was removed before the addition of chemotherapy. The cells were incubated for 24 hr with the chemotherapeutics cisplatin and doxorubicin, after incubation the metabolic activity was measured.

In the case of `CC/C=C\C/C=C\C/C=C\C/C=C\C/C=C\C/C=C\CCC(=O)O` [DHA, docosahexanoic acid], the “metabolic activity after cisplatin treatment” value (then 24 hr cisplatin) is reported as “no significant changes in metabolic activity” and the “metabolic activity of doxorubicin treated cells” value (then 24 hr doxorubicin) is reported as “no significant changes in metabolic activity”.
